Measured values published in patent publication US6355617B1, “Peptide derivatives” (Syngenta Limited, priority 1996, dated 2002).

Tests used:
[1] = system: BALB/C mice; experiment: Test C: Peptide stimulated DTH (delayed type hypersensitivity) in BALB/C mice; type: in vivo; details: ovalbumin DTH footpad swelling, 3-day osmotic mini-pumps
Method: Test C: Peptide stimulated DTH (delayed type hypersensitivity) in BALB/C mice. […] Balb/c female mice (18-20 g), 5 per group, were immunised sub-cutaneously on the flank with 0.1 ml of an emulsion of ovalbumin (Sigma) (2 mg/ml in saline) mixed 1:1 (v/v) with complete Freunds adjurant (Sigma). Seven days later footpad thickness was determined using a dual caliper micrometer followed by a challenge in one hind footpad with a 30 μl sub-plantar injection of 1% heat-aggregated ovalbumin protein in saline. Twenty-four hours after antigen challenge, footpads were measured and the DTH response calculated as the percentage increase in footpad thickness in the injected footpad compared to contralateral control. Inhibitors were adminstered by 3-day osmotic mini-pumps (Alzet) implanted 24 hours prior to antigen challenge at doses ranging from 10 mg/kg/day to 0.1 μg/kg/day. The degree of inhibition was calculated by substracting the value for swelling of inhibitor treated footpads from that of the vehicle dosed controls, dividing by the control value and multiplying by 100%.

[2] = biological target: T1, HLA-DR4Dw4 (Homo sapiens, UniProt P01903+P01911, A100K/A169T/F76Y/I96L/K127E/L162R/M171V/N62H/P40V/Q125Y/R42H/S133A/S149N/S66Y/V115G/V209L/W38E); experiment: Test A: Purified HLA-DR peptide in vitro binding assay; details: competition with biotin-FHA307-320, 48 hours incubation
T1 construct: a cDNA encoding the β chain is cloned into the transfer vector pAcUW1; made in house; host or cells: Sf21 insect cells, double-recombinant baculovirus
Method: Test A: Purified HLA-DR peptide in vitro binding assay. […]. At the end of the incubation period 100 μl of the incubate is transferred to Enzyme Linked ImmunoSorbant Assay (ELISA) plates (Nunc) previously coated with an anti-MHC antibody (L243-American Type Culture Collection (ATCC) HB55 as described in Lampson and Levy (1980) J. Immunol. 125, 293-299) at a concentration of 10 μg/ml for 1 hour at room temperature and blocked thereafter for 1 hour with 1% bovine serum albumin (BSA) in PBS and 0.05% Tween 20. […] The reaction is stopped by adding 2M sulphuric acid (10 μl per well) and the absorbance read at 450 nm to quantify the amount of peptide bound. The inhibitory activity-of peptides is obtained by plotting absorbance against concentration. […]
To create the double-recombinant baculovirus, a cDNA encoding the β chain is cloned into the transfer vector pAcUW1 [Weyer, U; Knight, S & Possee, R D (1990) J. Gen. […] Double-recombinant viruses are detected by spotting insect cells, infected with randomly picked viruses from the transfection, onto membranes and reacting them with a monoclonal antibody e.g. L243 which specifically recognises the HLA-DR heterodimer. Binding of the antibody to Sf21 insect cells is detected using standard flow cytometry techniques, readily available in the literature. […]

Phv-Arg-Ala-IIb-Thr-Ala-Ala-Ala-Papa-NH2 [Example 1]
dose at which active in Test C [1]: < 0.1 mg/kg/day | concentration showing significant binding to HLA-DR4Dw4 in Test A [2]: ≤ 0.1 µM
